Patent US11033518B2, “Pharmaceutical composition containing niclosamide for treating axin-GSK3 interaction-related diseases” (BAOBAB PHARM CO., LTD., priority 2017, dated 2021)
Where two headings read alike, the source gives them in different places. Ends that are not written are not given here.

Assays:
[1] = relative to paclitaxel; cited from earlier work
recombinant GSK3 beta = biological target: T1, recombinant GSK3 beta (Homo sapiens, UniProt P49841); test: Surface plasma resonance (SPR) analysis; format: binding
T1 construct: His; made in house; host or cells: Sf9 insect cells; This is inferred: 'the purified recombinant GSK3 beta' points back to the protein of b91
T1 sequence (P49841 whole entry): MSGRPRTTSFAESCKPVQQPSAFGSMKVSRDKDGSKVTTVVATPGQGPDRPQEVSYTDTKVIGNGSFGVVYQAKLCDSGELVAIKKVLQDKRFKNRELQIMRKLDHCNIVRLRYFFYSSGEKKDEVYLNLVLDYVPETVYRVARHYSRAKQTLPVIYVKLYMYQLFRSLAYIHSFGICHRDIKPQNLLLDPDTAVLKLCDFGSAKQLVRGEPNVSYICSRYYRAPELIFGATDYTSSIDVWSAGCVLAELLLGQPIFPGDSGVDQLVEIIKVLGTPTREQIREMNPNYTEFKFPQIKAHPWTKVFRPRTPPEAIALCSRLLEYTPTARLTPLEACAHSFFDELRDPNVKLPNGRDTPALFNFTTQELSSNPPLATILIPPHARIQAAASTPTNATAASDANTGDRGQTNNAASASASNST
Protocol: In order to confirm whether niclosamide directly binds to GSK3, surface plasma resonance (SPR) analysis was conducted.
SPR was carried out using ProteOn™ XPR36 Protein Interaction Array system (Bio-Rad Laboratories, Inc., CA, USA), and the purified recombinant GSK3 beta was immobilized on ProteOn GLH sensor chip. The niclosamide or 19-mer wild-type Axin peptide or mutant peptide (VEPQKAAEEAIHRAEAVQR, mutation underlined) was diluted with phosphate-buffered saline+Tween 20+1% DMSO at different concentrations respectively, and then was flowed into the chip at a rate of 100 μl/min, and the result was analyzed by ProteOn Manager Software 2.0 using the standard Langmuir models for fitting kinetic data. The complex formation ratio was represented by an association constant (ka, in the unit of M−1s−1), and the complex decrement ratio was represented by a dissociation constant (kd, in the unit of s−1) as the following equilibrium equation 1.
The high-affinity interaction is represented by the low dissociation constant, and gradual cognition and binding with interactant (rapid “on rate,” or high ka), and stability of complex formation (slow “off rate,” or low kd) are equal to the equation KD=kd/ka.

In the case of `CC[C@@H](C(=O)[C@@H](C)[C@@H](O)[C@H](C)[C@@H]1O[C@@H]([C@@H](CC)C(=O)O)CC[C@@H]1C)[C@H]1O[C@]2(C=C[C@@H](O)[C@]3(CC[C@@](C)([C@H]4CC[C@](O)(CC)[C@H](C)O4)O3)O2)[C@H](C)C[C@@H]1C` [Salinomycin], the “potency in inhibiting cancer differentiation in proportion to paclitaxel” value [1] is listed as “up to 100 times”.
For `CC[C@H](C)[C@H](NC(=O)[C@H](CC(C)C)NC(=O)[C@H](CCC(=O)O)NC(=O)[C@H](CCC(=O)O)NC(=O)[C@H](C)NC(=O)[C@H](Cc1ccccc1)NC(=O)[C@H](CCCCN)NC(=O)[C@H](CCC(N)=O)NC(=O)[C@@H]1CCCN1C(=O)[C@H](CCC(=O)O)NC(=O)[C@@H](N)C(C)C)C(=O)N[C@@H](Cc1c[nH]cn1)C(=O)N[C@@H](CCCNC(=N)N)C(=O)N[C@@H](CC(C)C)C(=O)N[C@@H](CCC(=O)O)C(=O)N[C@@H](C)C(=O)N[C@H](C(=O)N[C@@H](CCC(N)=O)C(=O)N[C@@H](CCCNC(=N)N)C(=O)O)C(C)C` [wild-type Axin peptide, VEPQKFAEELIHRLEAVQR], the Kd (recombinant GSK3 beta; immobilized GSK3 beta, read-out: Equilibrium dissociation constant, KD) was 35 µM.
With “VEPQKAAEEAIHRAEAVQR [mutant Axin peptide, VEPQKAAEEAIHRAEAVQR]” the Kd (recombinant GSK3 beta; immobilized GSK3 protein, read-out: binding to GSK3 (could not bind up to)) was greater than 100 µM.
